Measurements as given in patent publication US20060014826A1, “Dioxocyclohexane carboxylic acid phenyl amide derivatives for modulating voltage-gated potassium channels and pharmaceutical compositions containing the same” (Wyeth, priority 2004, published 2006).

Legend:
[1] = target: T1, human Kv1.1/Kvβ1 potassium ion channel complex (Homo sapiens, UniProt Q09470+Q14722); experiment: Inhibiting the inactivation of Kv1.1/Kvβ1 potassium ion channel complex, voltage clamp current recordings in Xenopus oocytes; type: cell-based; settings: relative to control oocytes without test compound, read-out: Percent Increase in Steady State Current (@ concentration shown in parentheses)
T1 construct: expressed in transfected cells; host or cells: Xenopus oocytes injected with cRNA
Experimental: Compounds useful in this invention were examined for their ability to inhibit the inactivation of the human Kv1.1/Kvβ1 potassium ion channel complex in vitro using electrophysiological current recordings on inactivating Kv1.1/Kvβ1channels expressed in Xenopus oocytes. The following procedure was used.
Xenopus oocytes were harvested from frogs under general anesthesia using aseptic techniques. Oocytes were treated with 2 mg/ml collagenase for 1-1.5 hr, defolliculated, and injected with 40 nL cRNA (a mixture of hKv1.1 and hKvβ1) produced using standard molecular biological techniques (Sambrook, et al., 1989, Molecular Cloning: A Laboratory Manual). The concentration of hKv1.1/hKvβ1 cRNA varies, but was generally about 50 ng/μL hKv1.1 and […] hkβ1.
Currents were recorded using standard voltage clamp amplifiers at room temperature. Recordings were performed in the bath solution “ND-96” containing 96 mM NaCl, 2 mM KCl, 1 mm CaCl2, 1 mM MgCl2, 10 mM HEPES and […] Gentamycin (pH=7.6). The pipette (electrode) solution generally consisted of 3 mM KCl. Electrodes were made from WPI TW150F-4 borosilicate glass (or equivalent) and typically had resistances of 0.5-1.5 Mohms. The standard current—voltage (IV) pulse protocol consisted of voltage steps from −60 mV to +50 mV, in 10 mV increments for 200 ms, at a frequency of one IV set per 2 minutes. Data were digitized and analyzed by standard software packages.
Test compounds where first dissolved in DMSO to an initial concentration of 1-100 mM. Working dilutions of 1:2000 to 1:500 were made in the bath solution for final concentrations in the micromolar range. The bath solutions containing the test compounds were applied by bath perfusion using gravity or pump-driven flow. A minimum of 2 mL (10 times the bath volume) over 3 minutes were flowed for each compound concentration tested. Data were averaged across at least 3 cells tested for each concentration.
Test compounds were examined for their ability to inhibit the inactivation of the steady state portion of the IV curve.

[2] = tested on: seizures induced by administration of pentylenetetrazole (PTZ); experiment: Inhibiting PTZ induced seizures; type: in vivo; settings: Mus musculus; adult mice, i.p. pretreatment 30 min before PTZ 85 mg/kg s.c., 30 minute test period; read-out: ED50, Dose Range
Experimental: Compounds useful in this invention were also examined for their anticonvulsant activity in vivo by assessing their ability to inhibit the seizures induced by administration of pentylenetetrazole (PTZ). Adult mice were pretreated intraperitoneally with the test compound. Thirty minutes later these animals were challenged with pentylenetetrazole (85 mg/kg, s.c.) and observed for onset of seizures during a 30 minute test period.

[3] = tested on: mouse 4-Plate model (punished crossings); experiment: Anxiolytic activity, mouse 4-Plate model; type: in vivo, male Swiss Webster mice
Experimental: Anxiolytic activity of the compounds of this invention was determined using the mouse 4-Plate model, originally described by Boissier et al. (Eur. J. Pharmacol. (1968) 4:145-151). The test procedure used is described in further detail below. Anxiolytic efficacy is measured as the ability of the test compound to increase the number of times that an animal will accept a mild punishment (in the form of a foot shock) in order to explore its environment. A number of clinically effective treatments for anxiety from multiple pharmacological classes are effective in this model (Hascoet et al., Pharmacol. Biochem. Beh. (2000) 65:339-344).
The compound of Example 8 was examined in the 4-Plate model.
Experimental Protocol for the 4-Plate Model
The “four-plate” apparatus consisted of a Plexiglas cage (18×25×16 cm) floored by four identical rectangular metal plates (8×11 cm) separated from one another by a gap of 4 mm. The plates were connected to a device that generated electric shocks (0.8 mA, 0.5 sec). […] Test animals (male Swiss Webster mice) were group housed with ad-lib access to food and water. Compounds were administered at the appropriate dose ip. 30 min prior to testing. Control animals were given the vehicle without drug. Animals were then placed in the 4-plate apparatus and allowed to habituate for 18 seconds. Following the 18-sec habituation period, an electric shock (0.8 mA, 0.5 sec) was delivered to the mouse when crossing from one plate to another. No shocks were delivered during the 3 seconds following shock administration. The number of punished crossings was recorded during a 1-min testing period. Data were expressed as the percent change in the number of punished crossings relative to control.

T1 sequence (Q09470 whole entry): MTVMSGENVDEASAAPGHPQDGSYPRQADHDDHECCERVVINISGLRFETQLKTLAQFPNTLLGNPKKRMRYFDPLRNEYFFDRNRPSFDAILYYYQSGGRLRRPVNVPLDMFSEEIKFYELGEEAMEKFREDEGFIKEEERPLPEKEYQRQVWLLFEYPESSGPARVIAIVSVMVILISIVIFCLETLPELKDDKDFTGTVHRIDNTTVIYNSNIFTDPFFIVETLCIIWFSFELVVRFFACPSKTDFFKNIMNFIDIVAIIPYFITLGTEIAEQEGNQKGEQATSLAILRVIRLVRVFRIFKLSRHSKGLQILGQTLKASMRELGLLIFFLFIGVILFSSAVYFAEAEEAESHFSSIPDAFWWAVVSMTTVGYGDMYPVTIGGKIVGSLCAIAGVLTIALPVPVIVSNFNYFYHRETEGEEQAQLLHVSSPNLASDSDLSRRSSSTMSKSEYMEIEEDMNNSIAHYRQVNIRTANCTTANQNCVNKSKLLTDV
T1 sequence (Q14722 whole entry): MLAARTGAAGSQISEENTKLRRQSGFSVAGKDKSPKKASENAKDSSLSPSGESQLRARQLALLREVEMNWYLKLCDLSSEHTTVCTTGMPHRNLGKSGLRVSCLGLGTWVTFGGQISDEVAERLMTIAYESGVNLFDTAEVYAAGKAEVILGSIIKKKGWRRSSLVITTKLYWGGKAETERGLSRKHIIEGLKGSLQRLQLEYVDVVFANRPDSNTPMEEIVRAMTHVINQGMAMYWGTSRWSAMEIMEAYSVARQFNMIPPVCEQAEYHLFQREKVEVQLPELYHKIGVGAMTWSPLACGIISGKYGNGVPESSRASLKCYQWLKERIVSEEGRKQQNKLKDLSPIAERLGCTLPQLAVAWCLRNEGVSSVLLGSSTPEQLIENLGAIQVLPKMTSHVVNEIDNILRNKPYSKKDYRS

Row | SMILES | activation at 50 µM ([1]; 50 μm) [%] | ED50 [2] [mg/kg] | Punished crossings (% of control) ([3]; 0.3 mg/kg ip., 30 min prior to testing) [%] | increase in the number of punished crossings ([3]; at therapeutically relevant doses) [%] | activation at 100 µM [1] [%] | increase in the number of punished crossings ([3]; 56 mg/kg ip) [%] | % Time Spent in Open Zones (Relative to Control) ([3]; 60 mg/kg ip., 30 min prior to testing) [%] | melting point [°C]
1 | CC1(C)CC(=O)C(C(=O)Nc2cc(C(F)(F)F)cc(C(F)(F)F)c2)C(=O)C1 [Example 9, N-[3,5-bis(trifluoromethyl)phenyl]-4,4-dimethyl-2,6-dioxocyclohexanecarboxamide] | 20 | 55 |  |  |  |  |  | 
2 | Cc1nnc2n1-c1ccc(Cl)cc1C(c1ccccc1)=NC2 [Alprazolam, reference compound] |  |  | 170 | 70 |  |  |  | 
3 | CC1(C)CC(=O)C(C(=O)Nc2cccc(C(F)(F)F)c2)C(=O)C1 [Example 8, N-(3-trifluoromethylphenyl)-4,4-dimethyl-2,6-dioxocyclohexanecarboxamide] |  | 32 |  |  | 40 | 31 | 131 | 116 to 117
4 | CC1(C)CC(=O)C(C(=O)Nc2cccc(Cl)c2)C(=O)C1 [Example 1, N-(3-chlorophenyl)-4,4-dimethyl-2,6-dioxocyclohexanecarboxamide] |  | 30 |  |  | 21 |  |  | 89 to 91
5 | CC1(C)CC(=O)C(C(=O)Nc2ccc(Cl)c(Cl)c2)C(=O)C1 [Example 2, N-(3,4-dichlorophenyl)-4,4-dimethyl-2,6-dioxocyclohexanecarboxamide] |  | 50 |  |  | 75 |  |  | 124 to 129
